According to publication PMC5618632, “In Vitro Glucuronidation of Wushanicaritin by Liver Microsomes, Intestine Microsomes and Expressed Human UDP-Glucuronosyltransferase Enzymes” (International Journal of Molecular Sciences, 2017):
Values joined by “and” are separate entries in the source; they are usually repeats but may differ in a detail not shown here. Equal entries are not always repeated. One block for each compound: values may come before it.

Key:
[1] = human, pH 7.4
Experimental: Wushanicaritin was incubated with HLM, HIM and expressed UGTs enzymes to determine the rates of glucuronidation as published previously [12, 23, 31]. Briefly, the incubation mixture mainly contained 50 mM Tris-hydrochloric acid buffer (pH 7.4), 0.88 mM MgCl2, 22 µg/mL alamethicin, 4.4 mM saccharolactone and 3.5 mM UDPGA [32]. The reaction was terminated by adding ice-cold acetonitrile. The samples were vortexed and centrifuged at 13,800× g for 10 min. The supernatant was subjected to UPLC/Q-TOF-MS (Waters Corporation, Manchester, UK) analysis. […] Similarly, wushanicaritin was incubated with DLM, RLM, MkLM, RaLM and GpLM in the same way as for HLM. All experiments were performed in triplicate. Preliminary experiments were performed to ensure that the rates of glucuronidation were determined under linear conditions with respect to the incubation time and protein concentration.
Serial concentrations of wushanicaritin (0.156–20 µM) were incubated with HLM, HIM and expressed UGTs enzymes to determine wushanicaritin glucuronidation rates. […] Appropriate models were selected by visual inspection of the Eadie–Hofstee plot [34]. Model fitting and parameter estimation were performed by GraphPad Prism V5 software (GraphPad Software, Inc., San Diego, CA, USA).
V is the formation rate of the product. Vmax is the maximal velocity. Km is the Michaelis constant, and [S] is the substrate. […]

[2] = set-up: method as in PMID 21968061; details: DPPH radical scavenging (antioxidant activity); cited from earlier work
[3] = Glucuronidation by dog liver microsomes (DLM); format: in vitro ADME; details: for Km: dog, liver microsomes, read-out: Km or S50; for Ki: substrate inhibition constant
Experimental: (§1) The reaction was terminated by adding ice-cold acetonitrile. […] All experiments were performed in triplicate.
(§2) The parameter were as follow. V is the formation rate of the product. Vmax is the maximal velocity. […] Ksi is the substrate inhibition constant. […] (1) V=Vmax ×[S]/Km+[S] (2) V=Vmax ×[S]/Km + [S](1+[S]/Ksi)

[4] = Glucuronidation by rat liver microsomes (RLM); format: in vitro ADME; details: for Km: rat, liver microsomes, read-out: Km or S50; for Ki: substrate inhibition constant
Experimental: as §1, §2

[5] = Glucuronidation by human intestine microsomes (HIM); format: in vitro ADME; details: for Km: human, intestine microsomes, read-out: Km or S50
Experimental: as §1, §2

[6] = Glucuronidation by guinea pig liver microsomes (GpLM); format: in vitro ADME; details: for Km: guinea pig, liver microsomes, read-out: Km or S50
Experimental: as §1, §2

[7] = Glucuronidation by monkey liver microsomes (MkLM); format: in vitro ADME; details: for Km: monkey, liver microsomes, read-out: Km or S50; for Ki: substrate inhibition constant
Experimental: as §1, §2

[8] = Glucuronidation by pooled human liver microsomes (HLM), UDPGA-supplemented; format: in vitro ADME
Experimental: as §1, §2

[9] = Glucuronidation by rabbit liver microsomes (RaLM); format: in vitro ADME; details: for Km: rabbit, liver microsomes, read-out: Km or S50
Experimental: as §1, §2

expressed human UGT1A1 = biological target: T1, expressed human UGT1A1 (Homo sapiens, UniProt P22309); experiment: Glucuronidation by expressed UGT1A1; details: substrate inhibition constant; formation of G1 (3-O-glucuronide); UGT1A1
T1 sequence (P22309 26-533): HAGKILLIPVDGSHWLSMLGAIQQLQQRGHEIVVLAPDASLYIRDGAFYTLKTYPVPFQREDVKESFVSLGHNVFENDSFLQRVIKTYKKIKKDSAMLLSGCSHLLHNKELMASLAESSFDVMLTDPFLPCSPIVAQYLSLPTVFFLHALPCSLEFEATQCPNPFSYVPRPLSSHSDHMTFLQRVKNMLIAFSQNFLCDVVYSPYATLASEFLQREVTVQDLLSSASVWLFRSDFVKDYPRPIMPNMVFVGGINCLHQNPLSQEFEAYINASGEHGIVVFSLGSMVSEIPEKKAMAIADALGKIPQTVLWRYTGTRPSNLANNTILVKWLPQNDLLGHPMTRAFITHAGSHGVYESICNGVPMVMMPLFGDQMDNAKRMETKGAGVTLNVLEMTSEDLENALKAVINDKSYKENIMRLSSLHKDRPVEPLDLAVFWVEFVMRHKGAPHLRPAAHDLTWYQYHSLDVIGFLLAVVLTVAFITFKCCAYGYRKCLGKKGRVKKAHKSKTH
Experimental: as §1
The gradient elution program was the same as the UPLC condition of the structural identification of wushanicaritin glucuronides above. The detection wavelength was set at 270 nm, and the injection volume was 8 µL.
as §2
(§3) The contribution of individual expressed UGT enzymes to wushanicaritin glucuronidation in HLM was evaluated by the relative activity factor (RAF) approach as described in previous studies. The relative activity factor was defined as the activity ratio of HLM to an expressed UGT enzyme (Supersome) toward a probe substrate for this enzyme using Equation (3). The relative amount of wushanicaritin glucuronidation in HLM attributed to an expressed UGT enzyme was estimated by multiplying the glucuronidation activity (i.e., the intrinsic clearance) derived with this enzyme by the corresponding RAF. […] The contributions of individual UGT enzyme were calculated according to Equation (4). (3) RAF=CLint{probe,pHLM}/CLint{probe,Supersome} (4) Contribution of UGTs=CLint(wushanica ritin,UGTs)/CLint(wushanica ritin,pHLM)×RAF

UGT1A3 = biological target: T2, UGT1A3 (Homo sapiens, UniProt P35503); experiment: Glucuronidation by expressed UGT1A3; format: in vitro ADME; details: human, expressed UGT1A3 (Supersome); probe substrate glucuronidation; UGT1A3
T2 construct: purchased Corning Biosciences
T2 sequence (P35503 29-534): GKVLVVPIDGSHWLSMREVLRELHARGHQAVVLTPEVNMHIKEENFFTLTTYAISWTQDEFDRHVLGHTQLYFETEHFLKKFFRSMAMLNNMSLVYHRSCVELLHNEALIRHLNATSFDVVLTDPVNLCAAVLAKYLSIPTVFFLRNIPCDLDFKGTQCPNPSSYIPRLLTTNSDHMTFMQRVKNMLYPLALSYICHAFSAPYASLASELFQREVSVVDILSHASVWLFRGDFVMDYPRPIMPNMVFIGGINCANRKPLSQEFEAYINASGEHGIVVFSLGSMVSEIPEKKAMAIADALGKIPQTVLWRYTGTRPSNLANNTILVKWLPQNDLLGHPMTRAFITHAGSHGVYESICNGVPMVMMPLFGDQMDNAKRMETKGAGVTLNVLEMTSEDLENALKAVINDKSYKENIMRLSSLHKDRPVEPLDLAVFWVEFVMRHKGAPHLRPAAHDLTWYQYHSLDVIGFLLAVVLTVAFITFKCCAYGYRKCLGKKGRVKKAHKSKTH
Experimental: as §1
(§4) A series of working solutions of wushanicaritin were determined by the Acquity™ UPLC I-Class system equipped with a BEH C18 column (2.1 mm × 50 mm, 1.7 µm, Waters, Ireland, Part No. 186002350). The gradient elution program was the same as the UPLC condition of the structural identification of wushanicaritin glucuronides above. The detection wavelength was set at 270 nm, and the injection volume was 8 µL.
as §2
as §3, with “(3) RAF=CLint{probe,pHLM}/CLint{probe,Supersome} (4) Contribution of UGTs=CLint(wushanica ritin,UGTs)/CLint(wushanica ritin,pHLM)×RAF” left out

expressed human UGT1A3 = biological target: T3, expressed human UGT1A3 (Homo sapiens, UniProt P35503); experiment: Glucuronidation by expressed UGT1A3; format: in vitro ADME; details: relative activity factor for UGT1A3 = CLint(probe, pHLM)/CLint(probe, Supersome)
T3 construct: purchased Corning Biosciences
T3 sequence (P35503 29-534): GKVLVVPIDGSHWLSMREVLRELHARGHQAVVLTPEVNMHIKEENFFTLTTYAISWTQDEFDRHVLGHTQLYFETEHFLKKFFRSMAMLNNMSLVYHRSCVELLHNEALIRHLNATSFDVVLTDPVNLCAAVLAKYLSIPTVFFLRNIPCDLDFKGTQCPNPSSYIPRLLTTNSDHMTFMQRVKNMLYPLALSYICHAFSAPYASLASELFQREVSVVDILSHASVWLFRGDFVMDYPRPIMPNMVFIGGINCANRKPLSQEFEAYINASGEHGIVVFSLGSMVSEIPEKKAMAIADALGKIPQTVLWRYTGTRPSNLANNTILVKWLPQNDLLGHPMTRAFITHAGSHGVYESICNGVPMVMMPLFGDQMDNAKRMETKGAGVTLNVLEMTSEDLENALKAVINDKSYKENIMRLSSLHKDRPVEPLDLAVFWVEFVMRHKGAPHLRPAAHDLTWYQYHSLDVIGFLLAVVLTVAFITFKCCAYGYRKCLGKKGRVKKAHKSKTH
Experimental: as §1, §4, §2
as §3, with “(3) RAF=CLint{probe,pHLM}/CLint{probe,Supersome} (4) Contribution of UGTs=CLint(wushanica ritin,UGTs)/CLint(wushanica ritin,pHLM)×RAF” left out

[10] = pH 7.4, formation of G1 (3-O-glucuronide)
[11] = pH 7.4, formation of G2 (7-O-glucuronide)
[12] = formation of G1 (3-O-glucuronide)
[13] = formation of G2 (7-O-glucuronide)

species difference in hepatic glucuronidation ([1]; dog, rat, monkey, rabbit, guinea pig): up to 60.0 fold
variability of kinetic parameters, rat versus humans [1]: ≤ 2.5 fold
Km [3, 10]: 1.11 ± 0.16 µM
Km [3, 11]: 1.17 ± 0.13 µM
Ki [3, 12]: 29.09 ± 6.58 µM
Ki [3, 13]: 44.14 ± 9.09 µM
Km [4, 10]: 0.66 ± 0.06 µM
Km [4, 11]: 0.45 ± 0.03 µM
Ki [4, 12]: 37.11 ± 5.82 µM
Ki [4, 13]: 44.22 ± 5.42 µM
Km [5, 10]: 4.24 ± 0.75 µM
Km [5, 11]: 5.91 ± 1.1 µM
Km [6, 10]: 2.53 ± 0.3 µM
Km [6, 11]: 0.93 ± 0.06 µM
Km [7, 10]: 1.58 ± 0.25 µM
Km [7, 11]: 0.94 ± 0.08 µM
Ki [7, 12]: 11.57 ± 2.15 µM
Ki [7, 13]: 36.23 ± 5.13 µM
Km ([8]; human, pooled liver microsomes, pH 7.4, formation of G1 (3-O-glucuronide), read-out: Km or S50): 1.07 ± 0.13 µM
Km ([8]; human, pooled liver microsomes, pH 7.4, formation of G2 (7-O-glucuronide), read-out: Km or S50): 0.5 ± 0.08 µM
Ki ([8]; substrate inhibition constant, formation of G1 (3-O-glucuronide)): 32.99 µM and 32.990 ± 6.717 µM
Km [9, 10]: 2.22 ± 0.26 µM
Km [9, 11]: 3.29 ± 0.39 µM
Ki (expressed human UGT1A1): 17.150 ± 4.478 µM
Compound: COc1ccc(-c2oc3c(CCC(C)(C)O)c(O)cc(O)c3c(=O)c2O)cc1 [wushanicaritin]
IC50 [2]: 35.3 µM
Vmax [3, 12]: 0.19 ± 0.01 nmol/min/mg
Vmax [3, 13]: 0.32 ± 0.02 nmol/min/mg
Vmax [4, 12]: 0.34 ± 0.01 nmol/min/mg
Vmax [4, 13]: 0.37 ± 0.009 nmol/min/mg
Vmax [5, 12]: 0.74 nmol/min/mg and 0.74 ± 0.05 nmol/min/mg
Vmax [5, 13]: 1.34 nmol/min/mg and 1.34 ± 0.10 nmol/min/mg
Vmax [6, 12]: 0.05 ± 0.002 nmol/min/mg
Vmax [6, 13]: 1.43 ± 0.06 nmol/min/mg
Vmax [7, 12]: 0.22 ± 0.02 nmol/min/mg
Vmax [7, 13]: 0.21 ± 0.008 nmol/min/mg
Vmax [8, 12]: 1.34 nmol/min/mg and 1.34 ± 0.08 nmol/min/mg
Vmax [8, 13]: 0.35 nmol/min/mg and 0.35 ± 0.01 nmol/min/mg
Vmax [9, 12]: 0.11 ± 0.004 nmol/min/mg
Vmax [9, 13]: 0.56 ± 0.02 nmol/min/mg

Compound: C[C@H](CCC(=O)O)[C@H]1CC[C@H]2[C@@H]3[C@H](O)C[C@@H]4C[C@H](O)CC[C@]4(C)[C@H]3CC[C@]12C [CDCA, chenodeoxycholic acid, reference compound]
microsomal CLint (UGT1A3): 18.5 ± 1.28 µL/min/mg
RAF (expressed human UGT1A3): 0.48
microsomal CLint ([8]; human, pooled liver microsomes, probe substrate glucuronidation): 8.86 ± 0.74 µL/min/mg
Km ([8]; human, pooled liver microsomes, probe substrate glucuronidation, read-out: Km): 14.3 ± 1.16 µM
Vmax ([8]; probe substrate glucuronidation): 0.13 ± 0.003 nmol/min/mg
